Data taken from the supplement of paper PMC12370961.

Experiments:
Assay in all cases: differential drug sensitivity score (dDSS) relative to sarcoma reference cohort mean DSS (DSS units (0-100 scale difference)); higher = more selective sensitivity than reference sarcomas
Details in all cases: exposure time: 72 h; concentration range: 10-10000 nM
[1] = test system: ES-ZH001 (patient-derived Ewing sarcoma tumoroid)
Protocol: (§1)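 Drug response profiling of patient-derived Ewing sarcoma and CIC::DUX4 sarcoma tumoroid models (or cells tested directly after isolation from the tumor, 'direct'). The DSS is the normalised AUC (0-100); dDSS is the sample DSS minus the mean DSS of a 34-sarcoma reference cohort profiled in the same lab.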

[2] = test system: CDS-ZH003 (patient-derived CIC-DUX4 sarcoma tumoroid)
Protocol: as §1

[3] = test system: CDS-ZH001 (patient-derived CIC-DUX4 sarcoma tumoroid)
Protocol: as §1

[4] = test system: CDS-ZH002 direct (CIC-DUX4 sarcoma cells right after isolation)
Protocol: as §1

[5] = test system: ES-ZH008 (patient-derived Ewing sarcoma tumoroid)
Protocol: as §1

[6] = test system: ES-ZH016 (patient-derived Ewing sarcoma tumoroid)
Protocol: as §1

[7] = test system: ES-ZH007 (patient-derived Ewing sarcoma tumoroid)
Protocol: as §1

[8] = test system: ES-ZH002 (patient-derived Ewing sarcoma tumoroid)
Protocol: as §1

[9] = test system: ES-ZH009 (patient-derived Ewing sarcoma tumoroid)
Protocol: as §1

[10] = test system: ES-ZH004 (patient-derived Ewing sarcoma tumoroid)
Protocol: as §1

[11] = test system: ES-ZH016 direct (Ewing sarcoma cells right after isolation)
Protocol: as §1

[12] = test system: CDS-ZH001-2 (patient-derived CIC-DUX4 sarcoma tumoroid)
Protocol: as §1

[13] = test system: CDS-ZH002 (patient-derived CIC-DUX4 sarcoma tumoroid)
Protocol: as §1

Compound | differential drug sensitivity score [1] | differential drug sensitivity score [2] | differential drug sensitivity score [3] | differential drug sensitivity score [4] | differential drug sensitivity score [5] | differential drug sensitivity score [6] | differential drug sensitivity score [7] | differential drug sensitivity score [8] | differential drug sensitivity score [9] | differential drug sensitivity score [10] | differential drug sensitivity score [11] | differential drug sensitivity score [12] | differential drug sensitivity score [13]
NC(=O)Nc1cc(-c2cccc(F)c2)sc1C(=O)N[C@H]1CCCNC1 [AZD7762] | 7.4 | -3.8 | 6.3 | -1 | 8.1 | 4.7 | 8.8 | 7.1 | 8.8 | -2.9 | 10.6 | 0 | -0.5
COc1ccc(-c2ccc3c(N4CCOC[C@@H]4C)nc(N4CCOC[C@@H]4C)nc3n2)cc1CO [AZD8055] | 0.8 | 8.6 | 1.6 | -2.1 | 7.6 | 2 | 4.7 | 12.1 | 9.6 | 4.9 | -8.5 | 0.8 | -10.9
CCN1CCN(Cc2ccc(Nc3ncc(F)c(-c4cc(F)c5nc(C)n(C(C)C)c5c4)n3)nc2)CC1 [Abemaciclib] | 8.8 | -2.7 | -2.4 | 2.2 | 10.7 | 1.5 | 5.7 | 14.7 | 6.4 | 10.4 | -2.7 | -2.7 | -2.7
CN(C)Cc1c(C(=O)NCCOc2ccc(C(=O)NO)cc2)oc2ccccc12 [Abexinostat] | 5.3 | -11.2 | -3.5 | -0.7 | 9.6 | 4.3 | 4.9 | 3.9 | 10.5 | 3.2 | 2.4 | 4.2 | 0.1
CC#CC(=O)N1CCC[C@H]1c1nc(-c2ccc(C(=O)Nc3ccccn3)cc2)c2c(N)nccn12 [Acalabrutinib] | 5.7 | 1.4 | -3.5 | -3.2 | 17.5 | -2.1 | -3.5 | 9.7 | -3.5 | 11.2 | 2.4 | -2.5 | -2.9
C=CCn1c(=O)c2cnc(Nc3ccc(N4CCN(C)CC4)cc3)nc2n1-c1cccc(C(C)(C)O)n1 [Adavosertib] | 8.1 | 4.9 | 4.9 | -2.6 | 7.6 | 2.8 | 4 | 12 | 10.9 | 0.2 | 8.1 | 5.3 | 3
CN(C)C/C=C/C(=O)Nc1cc2c(Nc3ccc(F)c(Cl)c3)ncnc2cc1O[C@H]1CCOC1 [Afatinib] | -3.9 | -4.9 | -4.6 | -4.7 | -1.4 | -4.6 | -4.2 | -2 | -3 | -0.3 | -2.4 | -3.4 | -4.9
Cn1ncc(Cl)c1-c1cc(C(=O)N[C@H](CN)Cc2cccc(F)c2)sc1Cl [Afuresertib] | -4.1 | 1.1 | 2.8 | -5.5 | 4.6 | -0.3 | 2.4 | 5.8 | 3.6 | 4.1 | -3.4 | 0.3 | -4.7
CCc1cc2c(cc1N1CCC(N3CCOCC3)CC1)C(C)(C)c1[nH]c3cc(C#N)ccc3c1C2=O [Alectinib] | -0.5 | 2.4 | -1.2 | -0.8 | -0.7 | -1.3 | -1.3 | 4.6 | -1.3 | -1.3 | -1.3 | -1.3 | -1.3
COc1cc(Nc2ncc3c(n2)-c2ccc(Cl)cc2C(c2c(F)cccc2OC)=NC3)ccc1C(=O)O [Alisertib] | 20 | -0.9 | -3.4 | -7.3 | 8.2 | 15.3 | 8.5 | 21.5 | 15.8 | -11.3 | 17.2 | 5.5 | -3.7
Cc1nc(NC(=O)N2CCC[C@H]2C(N)=O)sc1-c1ccnc(C(C)(C)C(F)(F)F)c1 [Alpelisib] | -3.7 | 0.2 | 2.9 | -2 | 11 | 1 | -1.9 | 11 | 2.5 | 0.8 | 0.9 | 4.9 | -3
CN1CC[C@H](c2c(O)cc(O)c3c(=O)cc(-c4ccccc4Cl)oc23)[C@H](O)C1 [Alvocidib] | 2.6 | 8 | 8.5 | 8.9 | 6.3 | 6.1 | 7.8 | 7.1 | 9 | 6.6 | 3.7 | 5.7 | 5.8
COc1cc(NS(C)(=O)=O)ccc1Nc1c2ccccc2nc2ccccc12 [Amsacrine] | 12.5 | -12.8 | -1.9 | -4.1 | 16.3 | 13.7 | 8.9 | 27.1 | 8.4 | 8.8 | 13.3 | 3 | 1.6
COc1cc(OC)c2c(=O)[nH]c(-c3cc(C)c(OCCO)c(C)c3)nc2c1 [Apabetalone] | -0.7 | 3.6 | -0.6 | -0.7 | 3.2 | -0.7 | -0.7 | 0.6 | 0.5 | 0.6 | -0.7 | -0.7 | -0.7
CNC(=O)c1ccccc1Sc1ccc2c(/C=C/c3ccccn3)n[nH]c2c1 [Axitinib] | -0.9 | 6 | -0.9 | -0.9 | -0.9 | -0.9 | -0.9 | 2.2 | 0.4 | -0.9 | 3.8 | -0.8 | -0.9
Nc1ncn([C@@H]2O[C@H](CO)[C@@H](O)[C@H]2O)c(=O)n1 [Azacitidine] | -1.2 | -1.2 | -0.4 | 0.2 | -1.2 | -1.2 | -1.2 | 4.4 | 0.6 | -1.2 | -1.2 | -0.6 | 0.2
Cc1ccc(C(=O)Nc2cccc(C(F)(F)F)c2)cc1Nc1nc(-c2cccnc2)nc2c1cnn2C [BHG712] | -1.1 | -1.6 | -1.6 | -1.6 | 7.1 | -1.6 | -1.6 | 3.8 | -1.6 | 0.6 | -1.6 | -1.6 | -1.6
CC[C@@H]1C(=O)N(C)c2cnc(Nc3ccc(C(=O)NC4CCN(C)CC4)cc3OC)nc2N1C1CCCC1 [BI-2536] | 21.6 | -10 | -0.7 | -8 | 2.3 | 17.6 | 6.1 | 19 | 19.6 | 2.9 | 13.4 | 1.7 | 2.2
CC(C)CCN1c2nc(Nc3cc(F)c(O)c(F)c3)ncc2N(C)C(=O)C1C (stereo not given) [BI-D1870] | 2.9 | 4.1 | 1.3 | -1.7 | 5.6 | 2.7 | 0.6 | 3.1 | 8.6 | 3 | 7.3 | -0.8 | -2.3
Fc1cc(-c2cccc3ncc(-c4cnn(C5CCNCC5)c4)nc23)cc(F)c1CN1CCOCC1 [BSK805] | -0.1 | 2.6 | 2.5 | 0.1 | 2.9 | 2.5 | 2.8 | 3.2 | 1.7 | 1.4 | 3 | 1.9 | -2.6
O=C(NCCCNc1nc(Nc2cccc(NC(=O)N3CCCC3)c2)ncc1I)c1cccs1 [BX-795] | 3.7 | 5.5 | -4.1 | -2.6 | -2.2 | 2.6 | 0 | 2.2 | 1.1 | -3.5 | 5.1 | -2.6 | -1.9
CCN(CCCOc1ccc2c(Nc3cc(CC(=O)Nc4cccc(F)c4)[nH]n3)ncnc2c1)CCOP(=O)(O)O [Barasertib] | 32.8 | -8.9 | -8.9 | -3 | 17.5 | 22.6 | 4.7 | 26.1 | 27.6 | 10.1 | 23.8 | 4.6 | -3
Cc1sc2c(c1C)C(c1ccc(Cl)cc1)=N[C@@H](CC(=O)Nc1ccc(O)cc1)c1nnc(C)n1-2 [Birabresib] | -5.6 | -0.8 | -1.1 | 1.5 | 5.9 | -7.9 | -4.1 | 0.3 | 11.9 | -6.7 | 11.1 | 1 | -11.1
CC[C@H](NC(=O)[C@H](C)NC)C(=O)N1C[C@@H](O)C[C@H]1Cc1c(-c2[nH]c3cc(F)ccc3c2C[C@@H]2C[C@H](O)CN2C(=O)[C@H](CC)NC(=O)[C@H](C)NC)[nH]c2cc(F)ccc12 [Birinapant] | -0.8 | 13 | 21.9 | 4.6 | -0.3 | -1.3 | -0.4 | -0.4 | 5.7 | -2.3 | 4.6 | 16.6 | -1.8
CC(C)C[C@H](NC(=O)[C@H](Cc1ccccc1)NC(=O)c1cnccn1)B(O)O [Bortezomib] | 3.9 | 6 | 6.9 | 6.9 | -0.2 | -5.9 | 6.4 | 4.7 | 7 | 5.5 | -2.6 | 6 | 3.6
COc1cc(Nc2c(C#N)cnc3cc(OCCCN4CCN(C)CC4)c(OC)cc23)c(Cl)cc1Cl [Bosutinib] | -0.5 | -0.4 | 0.6 | -0.5 | -0.5 | 1.1 | -0.5 | -0.5 | 0.5 | -0.5 | 0.2 | 1.8 | 0.1
COc1cc(N2CCC(N3CCN(C)CC3)CC2)ccc1Nc1ncc(Cl)c(Nc2ccccc2P(C)(C)=O)n1 [Brigatinib] | -0.4 | 2 | 3.4 | -0.2 | 4.1 | 1.9 | 1.9 | 9 | 2.5 | -3 | 0.4 | 7.6 | -4.2
Nc1cc(C(F)(F)F)c(-c2cc(N3CCOCC3)nc(N3CCOCC3)n2)cn1 [Buparlisib] | 1.5 | 6.9 | 3.3 | -2.5 | 4.6 | -0.6 | -0.1 | 7.6 | 2.5 | -2.2 | 0.6 | 2.9 | -2.2
CS(=O)(=O)OCCCCOS(C)(=O)=O [Busulfan] | 3.9 | -1.2 | -1.2 | -1.2 | -0.1 | -1.1 | -1.2 | 5.9 | -1.2 | 2.9 | 6.4 | -0.8 | -1.2
CCS(=O)(=O)N1CCC([C@@H](C)n2c(C)c(C(=O)NCc3c(OC)cc(C)[nH]c3=O)c3ccccc32)CC1 [CPI169] | -0.4 | -0.3 | -0.4 | -0.4 | -0.4 | -0.4 | -0.4 | -0.4 | -0.3 | -0.4 | 3.3 | -0.4 | -0.4
